Source: PMC3527451, “A Pilot Randomized, Placebo Controlled, Double Blind Phase I Trial of the Novel SIRT1 Activator SRT2104 in Elderly Volunteers” (PLoS ONE, 2012)
Entries after “also recorded” stand apart in the source; their conditions may differ. Read-outs that look alike come from different tables or passages of the source.

Experiments:
rat = tested on: rat; parameters: method as in SRT2104 Investigator's Brochure; details: ref SRT2104 Investigator's Brochure, cited from earlier work; for NOAEL: 28 days
[1] = Plasma pharmacokinetics of SRT2104, once daily oral dosing for 28 days in elderly volunteers; type: in vivo, human; details: for AUC(0-∞), Geometric Least Square Mean: Day 1, AUC(0-∞); for AUC(0-t)_D, dose-normalized Geometric Least Square Mean / AUC(0-∞)_D, dose-normalized Geometric Least Square Mean / Cmax_D, dose-normalized Geometric Least Square Mean / AUC(0-τ)_D, dose-normalized Geometric Least Square Mean: normalized to 0.5 g
Excerpt: This was a phase I, single-center, double-blind, randomized, placebo-controlled, parallel-arm study to assess the safety, tolerability, pharmacokinetic and initial pharmacodynamic properties of […] Pharmaceuticals, Cambridge, MA, USA) administered for the first time to male and female elderly volunteers 60 to 80 years of age. Volunteers were enrolled between 01 Oct 2009 and 5 Feb 2010. […] The selection of the doses investigated in this study was based upon safety and pharmacokinetic data obtained from a previous clinical study involving SRT2104 [19]. Suitability of participants was defined on the basis of a medical history, physical examination, vital signs, electrocardiogram and laboratory measurements. Subjects were required to have normal fasting glucose levels (4.4 to 6.0 mmol/L) at screening and a body mass index of at least 18 kg/m^2 and no greater than 30 kg/m^2. […] Subjects were deemed ineligible if they participated in any clinical trial with an investigative medicinal product within the past three months prior to the first dose in the current study, had been exposed to more than three new chemical entities within 12 months of enrollment, or used other concomitant medications and herbal products in the previous 3 months that in the opinion of the investigator could interfere with the study procedures or compromise subject safety. Additional exclusions included: women of childbearing potential and non-sterile men, unless they agreed to use acceptable method of contraception; history of alcoholism or drug abuse (including a positive pre-study drug/alcohol test at screening); use of tobacco or nicotine products; history of complications when donating blood or known relative inaccessibility of veins for venipuncture; donation of blood within three months of enrolment; history of significant drug or other allergies. Participants were asked to maintain their usual level of physical activity for the duration of the study. During the treatment phase of the study (days 1 to 28 inclusive), test material (SRT2104 or placebo) was supplied as 250 mg capsules and was administered at approximately the same time every morning, approximately 15 minutes following consumption of a standardized meal (Ensure Plus®, a high energy, high protein liquid meal replacement product providing approximately 650 kcal with approximately 30% of calories derived from fat). Subjects were not permitted to consume additional calories for at least 1-2 hours after dosing, although water was permitted ad libitum. Subjects were also instructed to refrain from caffeine and alcohol for 24 hours prior to screening and during assessments visits. The test material was administered within the investigation clinical unit on the days when serial pharmacokinetic sampling was performed (days 1-2 and 28-29) and at home on the remaining days (days 3-27). A diary card was provided to volunteers to confirm daily consumption of the standardized meal, as well as time of dose and number of capsules taken. Missing doses were recorded. Pharmacokinetic samples were collected through 24 hours post-dose on the first and last day of the dosing period (immediately prior to dosing and at 15, 30 minutes and 1, 2, 3, 4, 8, 12 and 24 hours post-dose). Blood samples for pharmacokinetic analysis were collected in pre-labelled lithium heparin heparin Vacutainers for pharmacokinetic analysis (∼4 mL per draw). Each sample was separated by centrifugation at 1500×g and 4°C for 10 minutes. Two equal aliquots of plasma were transferred to polypropylene vials labelled identically to the original blood sample and stored at approximately -20°C for subsequent analysis of plasma SRT2104 concentration. The bio-analysis was performed by Simbec Research Ltd, […], South Wales, UK. Pharmacokinetic parameters for SRT2104 were derived from non-compartmental methods using WinNonLin v5.2 (Pharsight Corporation, Mountain View, CA, USA). […]

dog = tested on: dog; parameters: method as in SRT2104 Investigator's Brochure; details: ref SRT2104 Investigator's Brochure, cited from earlier work
[2] = 0.5 or 2.0 g once daily, abstract summary

Cc1nc(-c2cccnc2)sc1C(=O)Nc1ccccc1-c1cn2c(CN3CCOCC3)csc2n1 [SRT2104]
vacuolation of pancreatic acinar cells, animals affected (rat; female rat, Day 29, not seen after 4 weeks recovery): 3/10
NOAEL (rat; female rats): 1000 mg/kg
NOAEL (rat; male rats, highest dose tested): 2000 mg/kg
tolerability (rat; rat, up to 2.0 g/kg for 28 days): well tolerated at all doses
Tmax (mean peak plasma concentration) ([1]; 0.5 g/day group): 2 to 4 h
between-subject variability for AUC(0–24), geometric mean CV ([1]; 0.5 g/day group): 140%
t1/2 of one subject ([1]; 0.5 g/day group, after first administration): 29.7 h
t1/2 of one subject ([1]; 0.5 g/day group, after repeated administrations): 28.3 h
AUC(0-t), Geometric Least Square Mean ([1]; 0.5 g/day, Day 1): 1950.07 ng·h/mL
Cmax, Geometric Least Square Mean ([1]; 0.5 g/day, Day 1): 326.22 ng/mL
AUC(0-∞), Geometric Least Square Mean ([1]; 0.5 g/day): 2503.70 ng·h/mL
AUC0-∞ ([1]; 0.5 g/day, Day 1, geometric mean): 1790.8 ng·h/mL
AUC0-t ([1]; 0.5 g/day, Day 1, mean): 1872.9 ng·h/mL
CL/F ([1]; 0.5 g/day, Day 1, mean): 594.2 L/h
Cmax ([1]; 0.5 g/day, Day 1, mean): 343.4 ng/mL
t1/2 ([1]; 0.5 g/day, Day 1, mean): 14.9 h
tmax ([1]; 0.5 g/day, Day 1, median): 3.0 h
AUC(0-t), Geometric Least Square Mean ([1]; 0.5 g/day, Day 28): 1610.10 ng·h/mL
Cmax, Geometric Least Square Mean ([1]; 0.5 g/day, Day 28): 199.12 ng/mL
AUC0-∞ ([1]; 0.5 g/day, Day 28, geometric mean): 2687.8 ng·h/mL
AUC0-t ([1]; 0.5 g/day, Day 28, mean): 2280.4 ng·h/mL
CL/F ([1]; 0.5 g/day, Day 28, mean): 566.9 L/h
Cmax ([1]; 0.5 g/day, Day 28, mean): 373.4 ng/mL
t1/2 ([1]; 0.5 g/day, Day 28, mean): 17.5 h
tmax ([1]; 0.5 g/day, Day 28, median): 3.0 h
Mean Tmax [1, 2]: 2 to 4 h
elimination half-life [1, 2]: 15 to 20 h
dose proportionality of exposure (Cmax, AUC) ([1]; 0.5 to 2.0 g/day): less than dose-proportionally; also recorded: less than dose proportional increase in exposure
between-subject variability for AUC(0–24), geometric mean CV ([1]; 2.0 g/day group): 102%
Tmax (apparent mean rise to peak concentration) ([1]; 2.0 g/day group, after the first dose): 2 to 8 h
AUC(0-t), Geometric Least Square Mean ([1]; 2.0 g/day, Day 1): 1743.14 ng·h/mL
Cmax, Geometric Least Square Mean ([1]; 2.0 g/day, Day 1): 301.28 ng/mL
AUC(0-∞), Geometric Least Square Mean ([1]; 2.0 g/day): 1788.42 ng·h/mL
AUC0-∞ ([1]; 2.0 g/day, Day 1, geometric mean): 2073.5 ng·h/mL
AUC0-t ([1]; 2.0 g/day, Day 1, mean): 3249.2 ng·h/mL
CL/F ([1]; 2.0 g/day, Day 1, mean): 1624.4 L/h
Cmax ([1]; 2.0 g/day, Day 1, mean): 477.6 ng/mL
t1/2 ([1]; 2.0 g/day, Day 1, mean): 15.1 h
tmax ([1]; 2.0 g/day, Day 1, median): 3.0 h
AUC(0-t), Geometric Least Square Mean ([1]; 2.0 g/day, Day 28): 3577.50 ng·h/mL
Cmax, Geometric Least Square Mean ([1]; 2.0 g/day, Day 28): 389.50 ng/mL
AUC0-∞ ([1]; 2.0 g/day, Day 28, geometric mean): 7729.6 ng·h/mL
AUC0-t ([1]; 2.0 g/day, Day 28, mean): 4797.4 ng·h/mL
CL/F ([1]; 2.0 g/day, Day 28, mean): 789.6 L/h
Cmax ([1]; 2.0 g/day, Day 28, mean): 572.4 ng/mL
t1/2 ([1]; 2.0 g/day, Day 28, mean): 21.6 h
tmax ([1]; 2.0 g/day, Day 28, median): 3.0 h
increase in mean AUC(0–24) relative to the first day of dosing ([1]; 2.0 g/day, repeat administration): approximately two-fold increases
AUC(0-t)_D, dose-normalized Geometric Least Square Mean ([1]; Day 1, 0.5 g/day): 1297.86 ng·h/mL
AUC(0-∞)_D, dose-normalized Geometric Least Square Mean ([1]; Day 1, 0.5 g/day): 1754.57 ng·h/mL
Cmax_D, dose-normalized Geometric Least Square Mean ([1]; Day 1, 0.5 g/day): 215.74 ng/mL
AUC(0-t)_D, dose-normalized Geometric Least Square Mean ([1]; Day 1, 2.0 g/day): 516.59 ng·h/mL
AUC(0-∞)_D, dose-normalized Geometric Least Square Mean ([1]; Day 1, 2.0 g/day): 504.43 ng·h/mL
Cmax_D, dose-normalized Geometric Least Square Mean ([1]; Day 1, 2.0 g/day): 69.64 ng/mL
AUC(0-t)_D, % Ratio (90% C.I.) 2.0 g/0.5 g ([1]; Day 1, dose proportionality): 39.80 (14.39–110.07) %
AUC(0-∞)_D, % Ratio (90% C.I.) 2.0 g/0.5 g ([1]; Day 1, dose proportionality): 28.75 (9.56–86.49) %
Cmax_D, % Ratio (90% C.I.) 2.0 g/0.5 g ([1]; Day 1, dose proportionality): 32.28 (10.41–100.15) %
AUC(0-t)_D, dose-normalized Geometric Least Square Mean ([1]; Day 28, 0.5 g/day): 1548.09 ng·h/mL
AUC(0-τ)_D, dose-normalized Geometric Least Square Mean ([1]; Day 28, 0.5 g/day): 1548.74 ng·h/mL
AUC(0-∞)_D, dose-normalized Geometric Least Square Mean ([1]; Day 28, 0.5 g/day): 2636.12 ng·h/mL
Cmax_D, dose-normalized Geometric Least Square Mean ([1]; Day 28, 0.5 g/day): 206.06 ng/mL
AUC(0-t)_D, dose-normalized Geometric Least Square Mean ([1]; Day 28, 2.0 g/day): 911.01 ng·h/mL
AUC(0-τ)_D, dose-normalized Geometric Least Square Mean ([1]; Day 28, 2.0 g/day): 909.85 ng·h/mL
AUC(0-∞)_D, dose-normalized Geometric Least Square Mean ([1]; Day 28, 2.0 g/day): 1903.42 ng·h/mL
Cmax_D, dose-normalized Geometric Least Square Mean ([1]; Day 28, 2.0 g/day): 96.83 ng/mL
AUC(0-t)_D, % Ratio (90% C.I.) 2.0 g/0.5 g ([1]; Day 28, dose proportionality): 58.85 (25.18–137.51) %
AUC(0-τ)_D, % Ratio (90% C.I.) 2.0 g/0.5 g ([1]; Day 28, dose proportionality): 58.75 (25.10–137.52) %
AUC(0-∞)_D, % Ratio (90% C.I.) 2.0 g/0.5 g ([1]; Day 28, dose proportionality): 72.21 (33.02–157.88) %
Cmax_D, % Ratio (90% C.I.) 2.0 g/0.5 g ([1]; Day 28, dose proportionality): 46.99 (15.44–142.99) %
Cmax, AUC(0-τ) and AUC(0–24) exposures in the 2.0 g/day group compared to the 0.5 g/day group ([1]; human, in vivo): approximately two-fold higher or less
differences in exposure between men and women ([1]; human, in vivo): No apparent differences in exposure
apparent half-life ([1]; mono-exponential decline, both doses): approximately 15 hours
tolerability (dog; dog, up to 2.0 g/kg for 28 days): well tolerated at all doses
increase in indirect bilirubin (dog; female dogs, 2.0 g/kg/day group): < 2 X
NOAEL (dog; male and female dogs, 28 days): 1000 mg/kg
